Laboratory results from US20230372244A1, “Methods of Preparing Cell-Derived Vesicles” (NATIONAL UNIVERSITY OF SINGAPORE, priority 2020, published 2023).
Structures can show the parent of a compound that is named as a salt.

Legend:
TRPA1 = molecular target: T1, TRPA1 (Mus musculus, UniProt Q8BLA8); assay: TRP channel functional assessment of immobilized CDVs (menthol, Fluo-4 calcium signal); format: biochemical, Murine; details: Fluo-4 loaded myoblast-derived CDVs on microfluidic chip; versus CDVs not administered menthol
T1 construct: containing Fluo-4 loaded myoblast-derived CDVs from the same culture; endogenous in cells
T1 sequence (Q8BLA8 whole entry): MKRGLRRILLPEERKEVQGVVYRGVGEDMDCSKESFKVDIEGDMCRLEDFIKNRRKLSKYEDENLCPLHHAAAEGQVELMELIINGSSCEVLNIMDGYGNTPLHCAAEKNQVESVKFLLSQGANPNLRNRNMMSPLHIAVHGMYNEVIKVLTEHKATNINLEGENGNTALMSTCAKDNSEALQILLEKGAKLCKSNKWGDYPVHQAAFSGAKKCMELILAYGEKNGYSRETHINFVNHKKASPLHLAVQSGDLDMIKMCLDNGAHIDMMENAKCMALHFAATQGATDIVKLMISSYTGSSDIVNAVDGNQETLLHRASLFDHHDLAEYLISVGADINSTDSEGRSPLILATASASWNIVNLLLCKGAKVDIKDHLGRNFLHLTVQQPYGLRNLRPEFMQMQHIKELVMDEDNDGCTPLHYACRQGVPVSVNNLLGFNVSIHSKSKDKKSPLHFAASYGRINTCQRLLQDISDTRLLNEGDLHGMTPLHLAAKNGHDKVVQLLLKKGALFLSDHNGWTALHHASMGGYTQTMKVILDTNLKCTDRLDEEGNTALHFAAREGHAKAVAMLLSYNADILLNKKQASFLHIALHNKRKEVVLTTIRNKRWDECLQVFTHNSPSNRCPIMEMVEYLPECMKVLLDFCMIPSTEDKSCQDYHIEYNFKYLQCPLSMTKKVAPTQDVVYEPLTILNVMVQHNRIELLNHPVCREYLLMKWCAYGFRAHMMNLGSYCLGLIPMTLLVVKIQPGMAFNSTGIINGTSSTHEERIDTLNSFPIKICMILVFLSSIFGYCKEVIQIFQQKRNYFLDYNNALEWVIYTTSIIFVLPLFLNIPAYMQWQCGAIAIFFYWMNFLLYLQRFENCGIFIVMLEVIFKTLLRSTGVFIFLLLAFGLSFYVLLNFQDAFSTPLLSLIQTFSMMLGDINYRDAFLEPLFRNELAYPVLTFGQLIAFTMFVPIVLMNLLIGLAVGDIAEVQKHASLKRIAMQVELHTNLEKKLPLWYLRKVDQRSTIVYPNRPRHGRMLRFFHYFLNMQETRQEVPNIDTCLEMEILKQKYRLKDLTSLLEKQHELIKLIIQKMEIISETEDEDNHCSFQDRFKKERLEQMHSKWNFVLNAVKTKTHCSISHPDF
Source text: FIG. 1. Schematic depicting the tests applied to CDVs to ascertain 1) innate channel functionality and 2) recuperative potential for cellular respiratory and proliferative capacities. 1) Cell-free assays were comprised of examining specific TRP channel activation by menthol (TRPA1) or magnetic fields (TRPC1). 2) Cell-based assays entailed administering wild type CDVs to TRPC1-knockdown myoblasts followed by testing for recuperation of cellular proliferative and mitochondrial respiratory capacities.
FIG. 4. A) Schematics of the CDV immobilization 1), loading 2), and TRP channel functional assessment 3). […] Red fluorescence is Texas Red as part of the biochemical linker, the dotted line indicates the edge of the print. […] Data were simultaneously recorded from 3 parallel channels of the same microfluidic chip containing Fluo-4 loaded myoblast-derived CDVs from the same culture, 2 channels with menthol administration and one without (negative control). […] Representative calcium responses (Rate of Rise (ROR) normalized to starting value) from intact C2C12 myoblasts D) or CDVs E) derived from wild type C2C12 myoblasts (left) or C2C12 CRISPR/Cas9 knockdown myoblasts, 60 (middle), and 61 (right), in response to 10 min magnetic field exposure (1.5 mT) while in suspension immediately before reading. […]

MCF-7 cells [1] = assay: Clonogenic assay of MCF-7 cells with DOX and PEMF; format: cell-based; details: 20 nM DOX, low density of 100 cells per well
Method: FIG. 13. […] (A) Schematic of PEMF and DOX treatment regime for DNA quantification. Cells were exposed to 3 mT for 1 h daily for 3 successive days. DOX (100 nM) was administered on the final day 1 h before the last PEMF exposure. Cellular DNA content was measured 24 h after the last PEMF exposure. (B) Bar chart of pooled data for Cyquant DNA content in fold change 24 h post-DOX and PEMF treatments. (C) Colony formation paradigm for MCF-7 cells treated with DOX and PEMFs. (D) MCF-7 colony formation in the presence of 10 and 20 nM DOX, with and without PEMF exposure as indicated. Cells were seeded at a low density of 100 cells per well. (E) Colony survival in 10 nM DOX under low-density conditions. […] (F) MCF-7 colony formation in the presence of 10 and 20 nM DOX, with and without PEMF exposure under high-density seeding of 1000 cells per well. […] (H) Absolute DCH2FDA-ROS fluorescence from MCF-7 cells. […]
In vitro clonogenic assay was performed using crystal violet staining (24). […] The mean survival factor (colony count) was determined as the number of surviving cells over the number of cells plated and normalized to the survival factor of the control group expressed as fold change. The colony size relative frequency was determined by binning colonies into several bins, according to their relative size from the smallest to the largest colonies after normalizing to the total number of cells.

MCF-7 cells [2] = assay: Cyquant DNA content of MCF-7 cells after DOX and PEMF; format: cell-based; details: DOX 100 nM; 3 mT PEMF 1 h daily for 3 days
Method: FIG. 13. […] (A) Schematic of PEMF and DOX treatment regime for DNA quantification. Cells were exposed to 3 mT for 1 h daily for 3 successive days. DOX (100 nM) was administered on the final day 1 h before the last PEMF exposure. Cellular DNA content was measured 24 h after the last PEMF exposure. (B) Bar chart of pooled data for Cyquant DNA content in fold change 24 h post-DOX and PEMF treatments. (C) Colony formation paradigm for MCF-7 cells treated with DOX and PEMFs. (D) MCF-7 colony formation in the presence of 10 and 20 nM DOX, with and without PEMF exposure as indicated. Cells were seeded at a low density of 100 cells per well. (E) Colony survival in 10 nM DOX under low-density conditions. […] (F) MCF-7 colony formation in the presence of 10 and 20 nM DOX, with and without PEMF exposure under high-density seeding of 1000 cells per well. The images on the right are the zoom-in images of cells under the same treatment paradigm. […] (H) Absolute DCH2FDA-ROS fluorescence from MCF-7 cells. […]
(§1) For cell enumeration using trypan blue exclusion assay, MCF-7, MDA-MB-231, or MCF10A cells were seeded at 6000 cells/cm^2 per well of a 6-well plate. […] Cyquant stained DNA was measured using at 480/520 nm using Cytation 5 microplate reader (BIOTEK).

MCF-7 xenograft = MCF-7 xenograft in mice, DOX and/or PEMF; format: in vivo; details: weekly PEMF and DOX exposures
Method: (A) Schematic of weekly PEMF and DOX exposures on MCF-7 xenograft in mice. Implanted cells were allowed to grow for 3 weeks before the initiation of DOX and/or PEMF treatment. Apoptotic cell determination was performed at the end of the study. […] N=6 mice, with *, p<0.05, **, p 1137<0.01, and #, p<0.0001. The error bars are expressed as the standard error of the mean.
The NSG mice were purchased from Jackson's laboratory and used at 8-10 weeks of age. Briefly, each female NSG mouse was implanted with a subcutaneous 60-day (0.36 mg) slow-release estradiol pellet (Innovative Research of America). […] The tumors were allowed to grow for 3 weeks. For MCF-7, 1×10^6 cells were counted and mixed in a 40-60% ratio with Matrigel Growth Factor (Bio Laboratories, Cat No. 354230). The cells are injected subcutaneously into the dorsal flank of the animals corresponding to the different treatment groups. The animals were given 20 mg/kg DOX intravenously and/or PEMFs stimulation for 1 h weekly for 5 weeks. At the end of the study, tumor volume was measured and isolated for apoptotic cell determination.
For apoptotic cell determination, the tumors were dissociated to single cells using the MACS Tumor Dissociation Kit in combination with the gentleMACS Dissociator (Miltenyi Biotec) as according to the manufacturer's protocol. After dissociation, the cells were filtered through a 30 μm MACS SmartStrainer. […]

[3] = tested on: patient-derived tumor xenografts; assay: Patient-derived tumor xenografts in NSG mice, DOX and/or PEMF; format: in vivo; details: 20 mg/kg DOX intravenously and/or PEMF 1 h weekly for 5 weeks
Method: (A) Schematic of PEMF and DOX exposures regimes used on mice hosting patient-derived tumor xenografts. Implanted tumors were allowed to grow for 3 weeks before the initiation of DOX and/or PEMF treatments. Tumor volumes were measured each week while apoptotic cell determination was performed at the end of the study. Each data point represents the mean from 5 experimental runs derived from the tumors obtained from 5 patients, each of which was equally divided amongst the 5 treatment groups. (B) Changes in tumor volume (mm^3) for 5 weeks. (C) Representative scatter dot-plots showing cell population of dissociated tumors sorted based on annexin and propidium iodide staining. (D) Bar chart represents pooled data of apoptotic cell percentages analyzed using flow cytometry. N=5 mice, with *, p<0.05, **, p<0.01, and #p<0.0001. The error bars are expressed as the standard error of the mean.
The NSG mice were purchased from Jackson's laboratory and used at 8-10 weeks of age. Briefly, each female NSG mouse was implanted with a subcutaneous 60-day (0.36 mg) slow-release estradiol pellet (Innovative Research of America). Each patient tumor was equally divided into 5 chunks and implanted into the dorsal flank of 5 animals corresponding to the 5 different treatment groups. […] At the end of the study, tumor volume was measured and isolated for apoptotic cell determination. […]

MCF-7/TRPC1 cells = assay: DNA content and colony formation of TRPC1 overexpressing MCF-7 cells with DOX and PEMF; format: cell-based; details: TRPC1 overexpression versus vector cells
Method: FIG. 17. […] (A) PEMF and DOX treatment regime for MCF-7/TRPC1 cell DNA quantification. (B) DNA fold change relative to 0 mT vector cells. Statistical analysis was done using the two-sample t-test. (C) Colony formation after 10 days in the presence of 0 nM, 10 nM or 20 nM DOX, without PEMF exposure. Images of colony formation and the quantification of colony size frequency distribution normalized to the total number of colonies in the presence of 10 nM DOX for (D) vector and (E) MCF-7/TRPC1 cells or 20 nM DOX for (F) vector and (G) MCF-7/TRPC1 cells, concomitant with daily PEMF exposure. *, p<0.05, **, p<0.01 and ***, p<0.001 indicate the statistical difference between the respective 0 mT and 3 mT condition within the same bin. (H) PEMF-modulated proliferation of TRPC1-silenced MCF-7 cells 48 h post dsiRNA transfection. […]
as §1
In vitro clonogenic assay was performed using crystal violet staining (24). […] The mean survival factor (colony count) was determined as the number of surviving cells over the number of cells plated and normalized to the survival factor of the control group expressed as fold change. […]

SMILES | intra-CDV calcium concentration (TRPA1) | colony number (MCF-7 cells [1]) | MCF-7 cell vulnerability to doxorubicin (DNA content) (MCF-7 cells [2]) | MCF-7 tumor growth (MCF-7 xenograft) | tumor growth [3] | sensitivity of MCF-7 cells to doxorubicin (MCF-7/TRPC1 cells)
CC1CCC(C(C)C)C(O)C1 (stereo not drawn) [Menthol, menthol] | increases in intra-CDV calcium concentration |  |  |  |  | 
COc1cccc2c1C(=O)c1c(O)c3c(c(O)c1C2=O)C[C@@](O)(C(=O)CO)C[C@@H]3O[C@H]1C[C@H](N)[C@H](O)[C@H](C)O1 [DOX, Doxorubicin hydrochloride] |  | too few to quantify accurately | enhances MCF-7 cell vulnerability to doxorubicin | synergize with doxorubicin to inhibit MCF-7 tumor growth in vivo | synergize with DOX to inhibit tumor growth in vivo | TRPC1 overexpression sensitizes MCF-7 cells to doxorubicin
